Results published in ChEMBL document CHEMBL1132343, “Carboxylic acid analogues of tamoxifen: (Z)-2-[p-(1, 2-diphenyl-1-butenyl)phenoxy]-N,N-dimethylethylamine. Estrogen receptor affinity and estrogen antagonist effects in MCF-7 cells” (J Med Chem, 1999).

What was measured:
[1] = system: MCF7; assay: Inhibition of MCF-7 cell proliferation at 10000 nM; assay type: functional, Homo sapiens
[2] = target: T1, Estrogen receptor (Homo sapiens, UniProt P03372)
T1 sequence (P03372 whole entry): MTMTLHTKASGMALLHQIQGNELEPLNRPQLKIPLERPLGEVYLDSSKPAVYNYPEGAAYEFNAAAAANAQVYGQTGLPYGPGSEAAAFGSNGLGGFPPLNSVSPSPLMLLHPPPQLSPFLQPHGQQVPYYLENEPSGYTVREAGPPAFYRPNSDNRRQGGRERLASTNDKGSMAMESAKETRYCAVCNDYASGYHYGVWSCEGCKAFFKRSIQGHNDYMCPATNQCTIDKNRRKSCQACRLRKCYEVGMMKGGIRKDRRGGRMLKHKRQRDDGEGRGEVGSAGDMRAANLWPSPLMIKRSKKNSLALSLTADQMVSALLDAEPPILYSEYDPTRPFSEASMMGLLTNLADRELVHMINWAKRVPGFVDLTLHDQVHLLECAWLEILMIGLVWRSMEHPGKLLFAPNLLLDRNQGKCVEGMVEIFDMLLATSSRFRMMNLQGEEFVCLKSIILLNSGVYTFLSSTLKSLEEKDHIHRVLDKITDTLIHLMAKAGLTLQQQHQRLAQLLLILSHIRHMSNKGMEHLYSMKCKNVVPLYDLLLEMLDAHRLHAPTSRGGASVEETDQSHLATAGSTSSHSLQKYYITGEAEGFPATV
Description: Displacement of [3H]17-beta-estradiol from human estrogen receptor alpha

[3] = system: MCF7; assay: Inhibition of MCF-7 cell proliferation at 100 nM; assay type: functional, Homo sapiens
[4] = system: MCF7; assay: Inhibition of MCF-7 cell proliferation at 10 nM; assay type: functional, Homo sapiens
[5] = system: MCF7; assay: Inhibition of estrogen-induced MCF-7 cell proliferation at 10000 nM; assay type: functional, Homo sapiens
[6] = system: MCF7; assay: Inhibition of MCF-7 cell proliferation at 1000 nM; assay type: functional, Homo sapiens

Structure (SMILES): CC/C(=C(/c1ccc(O)cc1)c1cccc(OCC(=O)O)c1)c1ccccc1
- Cell number [1]: 100%
- IC50 [2]: > 11 nM

Structure (SMILES): CC/C(=C(/c1ccc(OCC(=O)O)cc1)c1cccc(O)c1)c1ccccc1
- Cell number [3]: 82%
- Cell number [4]: 99%
- Cell number [5]: 78%
- Cell number [1]: 52%
- IC50 [2]: 1440 nM

Structure (SMILES): CC/C(=C(\c1ccc(O)cc1)c1ccc(OCC(=O)O)cc1)c1ccccc1
- Cell number [6]: 96%
- Cell number [1]: 102%
- IC50 [2]: 500 nM

Structure (SMILES): O=C(O)CCCOc1ccc(/C(=C/CCc2ccccc2)c2ccc(O)cc2)cc1
- Cell number [3]: 25%
- Cell number [4]: 74%
- Cell number [6]: 20%
- Cell number [5]: 18%
- IC50 [2]: 235 nM

Structure (SMILES): CC[C@](C)(c1ccccc1)[C@@H](c1ccc(O)cc1)c1ccc(OCCCC(=O)O)cc1
- Cell number [3]: 99%
- Cell number [6]: 102%
- Cell number [1]: 68%
- IC50 [2]: 6000 nM

Structure (SMILES): O=C(O)CCCOc1ccc(/C(=C/CCc2ccccc2)c2cccc(O)c2)cc1
- Cell number [3]: 91%
- Cell number [4]: 89%
- Cell number [5]: 50%
- Cell number [1]: 19%
- IC50 [2]: 1700 nM

Structure (SMILES): CC/C(=C(\c1ccccc1)c1ccc(OCCN(C)C)cc1)c1ccccc1 [TAMOXIFEN]
- Cell number [3]: 72%
- Cell number [4]: 97%
- Cell number [5]: 31%
- Cell number [1]: 24%
